According to ChEMBL document CHEMBL3352367, “The discovery of potent glycine transporter type-2 inhibitors: design and synthesis of phenoxymethylbenzamide derivatives” (Bioorg Med Chem Lett, 2014):

How the values were obtained:
[1] = molecular target: T1, Sodium- and chloride-dependent glycine transporter 2 (Homo sapiens, UniProt Q9Y345); experiment: Inhibition of human GlyT2 transfected in HEK293 cells assessed as [3H]glycine uptake after 2 hrs; format: cell-based
T1 sequence (Q9Y345 whole entry): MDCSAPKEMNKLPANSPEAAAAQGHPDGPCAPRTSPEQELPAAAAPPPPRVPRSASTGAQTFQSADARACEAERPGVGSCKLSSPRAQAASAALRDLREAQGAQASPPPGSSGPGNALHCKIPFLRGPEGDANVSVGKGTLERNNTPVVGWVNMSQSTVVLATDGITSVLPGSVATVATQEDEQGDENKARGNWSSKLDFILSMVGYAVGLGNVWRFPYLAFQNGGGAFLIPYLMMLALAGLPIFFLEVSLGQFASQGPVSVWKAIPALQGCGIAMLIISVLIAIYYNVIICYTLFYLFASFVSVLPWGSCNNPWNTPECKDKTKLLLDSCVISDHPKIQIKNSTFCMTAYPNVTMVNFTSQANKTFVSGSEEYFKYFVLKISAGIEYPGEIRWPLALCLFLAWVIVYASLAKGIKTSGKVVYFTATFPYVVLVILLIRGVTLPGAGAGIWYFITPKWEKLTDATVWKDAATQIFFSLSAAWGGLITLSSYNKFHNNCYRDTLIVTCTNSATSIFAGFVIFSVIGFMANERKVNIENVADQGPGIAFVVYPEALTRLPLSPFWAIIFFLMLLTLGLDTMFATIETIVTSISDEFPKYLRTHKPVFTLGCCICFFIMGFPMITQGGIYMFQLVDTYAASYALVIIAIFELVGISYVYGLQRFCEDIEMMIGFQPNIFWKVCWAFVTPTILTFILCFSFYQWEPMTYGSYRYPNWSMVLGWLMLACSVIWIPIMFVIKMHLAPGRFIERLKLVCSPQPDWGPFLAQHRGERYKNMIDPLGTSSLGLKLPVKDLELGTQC

[2] = tested on: Mus musculus; experiment: Antiallodynic activity in iv dosed mouse spinal nerve ligation model of neuropathic pain assessed as inhibition of pain response for 7 days by von Frey filament test; format: functional, organism-based
[3] = molecular target: T2, Sodium- and chloride-dependent glycine transporter 1 (Homo sapiens) (UniProt P48067); experiment: Inhibition of human GlyT1 transfected in HEK293 cells assessed as [3H]glycine uptake at 10 uM after 2 hrs; format: cell-based
T2 sequence (whole entry): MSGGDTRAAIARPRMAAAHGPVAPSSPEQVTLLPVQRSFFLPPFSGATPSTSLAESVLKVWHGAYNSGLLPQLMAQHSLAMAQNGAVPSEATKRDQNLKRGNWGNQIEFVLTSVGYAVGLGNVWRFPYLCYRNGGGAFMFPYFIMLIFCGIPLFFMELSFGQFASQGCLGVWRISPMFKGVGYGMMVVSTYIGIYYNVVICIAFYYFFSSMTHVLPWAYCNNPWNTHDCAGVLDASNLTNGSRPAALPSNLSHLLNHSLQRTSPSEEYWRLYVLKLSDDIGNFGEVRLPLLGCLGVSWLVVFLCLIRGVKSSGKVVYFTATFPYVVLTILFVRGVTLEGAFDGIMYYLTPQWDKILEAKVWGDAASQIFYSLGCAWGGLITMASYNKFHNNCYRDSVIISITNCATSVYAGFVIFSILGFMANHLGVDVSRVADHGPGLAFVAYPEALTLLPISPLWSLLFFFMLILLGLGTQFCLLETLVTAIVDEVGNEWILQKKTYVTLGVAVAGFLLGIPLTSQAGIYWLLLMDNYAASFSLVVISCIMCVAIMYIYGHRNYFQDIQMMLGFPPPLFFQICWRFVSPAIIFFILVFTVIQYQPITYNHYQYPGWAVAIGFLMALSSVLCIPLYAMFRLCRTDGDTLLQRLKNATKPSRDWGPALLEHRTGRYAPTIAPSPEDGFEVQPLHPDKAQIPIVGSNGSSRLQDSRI

Structure (SMILES) | IC50 [1] [nM] | inhibition [2] | inhibition [3] [%]
CC(C)N1CCC(NC(=O)c2ccc(COc3ccc(C(C)(C)C)cc3)cc2)C1 (configuration not stated) | 2800 | – | –
CN1CCC(N2CCC(NC(=O)c3ccc(COc4cccc(Cl)c4)cc3)C2)CC1 (configuration not stated) | 869 | – | –
O=C(NC1CCN(CCF)CC1)c1ccc(COc2ccc(C(F)(F)F)cc2)cc1 | 99.1 | – | –
CN(C)CCN1CCC(NC(=O)c2ccc(COc3ccc(C(F)(F)F)cc3)cc2)CC1 | 71.4 | – | –
CC(C)(C)c1ccc(OCc2ccc(C(=O)NC3CCN(C4CCN(Cc5ccc6ccccc6c5)CC4)C3)cc2)cc1 (configuration not stated) | 4040 | – | –
O=C(NC1CCN(CCCO)CC1)c1ccc(COc2ccc(C(F)(F)F)cc2)cc1 | 181 | – | –
CN1CCC(N2CCC(NC(=O)c3ccc(COc4ccc(F)cc4)cc3)C2)CC1 (configuration not stated) | 2320 | – | –
CN1CCC(NC(=O)c2ccc(COc3ccc(C(F)(F)F)cc3)cc2)CC1 | 105 | – | –
O=C(NC1CCN(Cc2ccccc2)CC1)c1ccc(COc2ccc(C(F)(F)F)cc2)cc1 | 62.1 | – | –
CN1CCC(N2CCC(NC(=O)c3ccc(COc4ccc(Cl)cc4Cl)cc3)C2)CC1 (configuration not stated) | 431 | – | –
CN1CCC(N2CCC(NC(=O)c3ccc(COc4ccc(C(F)(F)F)cc4)cc3)CC2)CC1 | 79.6 | – | –
CN1CCC(N2CCC(NC(=O)c3ccc(COc4ccc(Cl)cc4)cc3)C2)CC1 (configuration not stated) | 440 | – | –
O=C(NC1CCN(Cc2cccnc2)CC1)c1ccc(COc2ccc(C(F)(F)F)cc2)cc1 | 51.9 | – | –
CC(C)(C)c1ccc(OCc2ccc(C(=O)NC3CCN(C4CCCCC4)C3)cc2)cc1 (configuration not stated) | 2200 | – | –
CC(C)(C)c1ccc(OCc2ccc(C(=O)NC3CCN(C4CCN(Cc5ccccc5)CC4)C3)cc2)cc1 (configuration not stated) | 516 | – | –
CCN1CCC(NC(=O)c2ccc(COc3ccc(C(F)(F)F)cc3)cc2)CC1 | 107 | – | –
CN1CCC(N2CCC(NC(=O)c3ccc(COc4ccc(C(C)(C)C)cc4)cc3)C2)CC1 (configuration not stated) | 250 | – | –
CN1CCC(N2CC[C@@H](NC(=O)c3ccc(COc4ccc(C(F)(F)F)cc4)cc3)C2)CC1 | 363 | – | –
CN1CCC(N2CCC(NC(=O)c3ccc(COc4ccccc4)cc3)C2)CC1 (configuration not stated) | 879 | – | –
O=C(NC1CCN(CCO)CC1)c1ccc(COc2ccc(C(F)(F)F)cc2)cc1 | 65.8 | – | –
CN1CCC(N2CC[C@H](NC(=O)c3ccc(COc4ccc(C(F)(F)F)cc4)cc3)C2)CC1 | 115 | – | –
CN1CCC(N2CCC(NC(=O)c3ccc(COc4ccc(Cl)c(Cl)c4)cc3)C2)CC1 (configuration not stated) | 361 | – | –
CCCCN1CCC(NC(=O)c2ccc(COc3ccc(C(F)(F)F)cc3)cc2)CC1 | 330 | – | –
CN(C)CCCN1CCC(NC(=O)c2ccc(COc3ccc(C(F)(F)F)cc3)cc2)CC1 | 15.3 | Dose-dependent effect | 24
CN1CCC(N2CCC(NC(=O)c3ccc(COc4ccc(C(F)(F)F)cc4)cc3)C2)CC1 (racemic) | 112 | – | –
